This passage reports AC50 and activity change, negative = cytotoxicity results from PubChem BioAssay AID743136 (Broad Institute, 2013).

SMILES strings stand for the structures. “And” between values parts separate entries of the source, which are not always exact repeats. Identical values can stand only once. The source made the active and inactive calls.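 The calls were made as follows: active = valid fitted curve with falling viability signal and AC50 at most twice the top tested concentration; inconclusive = flat curve with 30 to 70% signal loss, or poor fit; inactive = the rest, including opposite-direction effects.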

One experiment relates to HepG2 viability, CellTiter-Glo ATP luminescence, 72 h. In words: hepatoma cell viability reduction – ATP luminescence, dry powder, Set2, 50 µM top, cytotoxicity control, dose response (AID 743136).
Conditions: not given
For `Cc1c(C(=O)O)sc2nc(/C=C/c3cccnc3N)[nH]c(=O)c12`, the AC50 (commonly the midpoint of the concentration-response curve, whichever way the signal moves) was > 24 µM (inactive).
The same measure, in the same setting: then `Cc1c(C(=O)O)sc2nc(/C=C/c3cccc(OC(F)(F)F)c3)[nH]c(=O)c12`, with > 100 µM (inactive).

Test system in the next experiment: not listed separately
The description is as above. The note with it: HepG2 viability, CellTiter-Glo ATP luminescence, 72 h; at 1.2 µM (top of the series). A general note: In ATP-based viability assays light output follows the ATP content of the culture.
`Cc1c(C(=O)O)sc2nc(/C=C/c3ccc(O)cn3)[nH]c(=O)c12`: the activity change, negative = cytotoxicity is -0.612% (inactive).

Staying with this experiment, now noted: HepG2 viability, CellTiter-Glo ATP luminescence, 72 h; at 12 µM (top of the series).
Regarding `Cc1c(C(=O)O)sc2nc(/C=C/c3ccc4[nH]ccc4n3)[nH]c(=O)c12`, the activity change, negative = cytotoxicity was 2.05% (inactive).

The same experiment, now with this note: HepG2 viability, CellTiter-Glo ATP luminescence, 72 h; at 46 µM (top of the series).
With `Cc1c(C(=O)O)sc2nc(/C=C/c3cccc(O)c3)[nH]c(=O)c12`, the activity change, negative = cytotoxicity is 1.28% (inactive).

Still in this experiment, the particulars now being: HepG2 viability, CellTiter-Glo ATP luminescence, 72 h; at 50 µM (top of the series).
Regarding `Cc1c(C(=O)O)sc2nc(/C=C/c3cccc(C(=O)O)c3)[nH]c(=O)c12`, the activity change, negative = cytotoxicity is -5.9% (inactive).
Take `Cc1c(C(=O)O)sc2nc(/C=C/c3cccc(=O)[nH]3)[nH]c(=O)c12`: the activity change, negative = cytotoxicity is -1.32% (inactive).
On the same count and under the same terms, to `Cc1c(C(=O)O)sc2nc(/C=C/c3ccncc3)[nH]c(=O)c12` belongs -2.2% (inactive).
Same read-out and setting: then `Cc1c(C(=O)O)sc2nc(/C=C/c3ccnc4ccccc34)[nH]c(=O)c12`, with -5.63% (inactive).
Still for that read-out and setting: then `Cc1c(C(=O)O)sc2nc(/C=C/c3cccnc3)[nH]c(=O)c12`, with -15.4% (inactive); and `Cc1c(C(=O)O)sc2nc(/C=C/c3cccc([N+](=O)[O-])c3)[nH]c(=O)c12`, with -30.8% (inactive).
Regarding `COc1cccc(/C=C/c2nc3sc(C(=O)O)c(C)c3c(=O)[nH]2)c1`, the activity change, negative = cytotoxicity was -15.1% (inactive).
Same read-out and setting: to `Cc1c(C(=O)O)sc2nc(/C=C/c3ccc(N)nc3)[nH]c(=O)c12` belongs -9.16% (inactive); to `Cc1c(C(=O)O)sc2nc(/C=C/C=C/c3ccccc3)[nH]c(=O)c12`, 20.1% (inactive).
The same measure, in the same setting: then `Cc1c(C(=O)O)sc2nc(/C=C/c3cccc(C(F)(F)F)c3)[nH]c(=O)c12`, with -10.9% (inactive); and `Cc1c(C(=O)O)sc2nc(/C=C/c3cc4ccccc4cn3)[nH]c(=O)c12`, with -5.12% (inactive); and `Cc1c(C(=O)O)sc2nc(/C=C/c3cccc(O)c3)[nH]c(=O)c12`, with -10.4% (inactive) and -7.42% (inactive).
On to `Cc1c(C(=O)O)sc2nc(/C=C/c3ccccc3O)[nH]c(=O)c12`, for which the activity change, negative = cytotoxicity was -7.61% (inactive).
On the same count and under the same terms, to `Cc1c(C(=O)O)sc2nc(/C=C/c3ccc4cc[nH]c4c3)[nH]c(=O)c12` belongs -21% (inactive); to `Cc1c(C(=O)O)sc2nc(/C=C/c3ccc4ccccc4c3)[nH]c(=O)c12`, -8.19% (inactive).
Same read-out and setting: then `Cc1c(C(=O)O)sc2nc(/C=C/c3cccc(F)c3)[nH]c(=O)c12`, with -10.3% (inactive).
Still for that read-out and setting: then `Cc1c(C(=O)O)sc2nc(CCc3cccc(O)c3)[nH]c(=O)c12`, with -14.1% (inactive); and `Cc1c(C(=O)O)sc2nc(/C=C/c3cccc(N)c3)[nH]c(=O)c12`, with -6.41% (inactive); and `Cc1c(C(=O)O)sc2nc(/C=C/c3cccc(N4CCOCC4)n3)[nH]c(=O)c12`, with -4.25% (inactive).
Regarding `Cc1c(C(=O)O)sc2nc(/C=C/c3ccc4[nH]ccc4c3)[nH]c(=O)c12`, the activity change, negative = cytotoxicity is 1.56% (inactive).
Still for that read-out and setting: to `Cc1c(C(=O)O)sc2nc(/C=C/c3ccccn3)[nH]c(=O)c12` belongs -16.2% (inactive); to `Cc1c(C(=O)O)sc2nc(/C=C/c3cccc(C(N)=O)c3)[nH]c(=O)c12`, -16.7% (inactive).
Same read-out and setting: to `Cc1c(C(=O)O)sc2nc(/C=C/c3ccccc3)[nH]c(=O)c12` belongs -17.2% (inactive); to `Cc1c(C(=O)O)sc2nc(/C=C/c3cnc4ccccc4c3)[nH]c(=O)c12`, -18.5% (inactive); to `Cc1c(C(=O)O)sc2nc(/C=C/c3cccc(N4CCNCC4)c3)[nH]c(=O)c12`, -21% (inactive).
Still for that read-out and setting: then `Cc1c(C(=O)O)sc2nc(/C=C/C3CC3)[nH]c(=O)c12`, with -1.5% (inactive).
